Measured values as given in patent US20080306118A1, “Process for the crystallization of (R) - or (S) - Lansoprazole” (Takeda Pharmaceutical Company Limited, priority 2000, published 2008).
Each block holds one molecule with its values, some of them ahead of it.

Assay: Stability test (relationship between melting start temperature and stability) of lansoprazole enantiomer crystals
Assay type: physicochemical
Conditions: for appearance after stability tests (FIG. 1): 40° C. 2 weeks, 50° C. 2 weeks and 60° C. 2 weeks, compared with before test; for 60° C. one month residual ratio: crystal, stability test at 60° C. for one month
Procedure: Stability Test (Relationship Between Melting Start Temperature and Stability)
Various (R)-lansoprazole crystals obtained in the above-mentioned Reference Examples and Examples were subjected to a stability test at 60° C. for one month.
The crystal of (R)-lansoprazole was subjected to a 40° C. one month stability test.
In FIG. 1, the appearance of a crystal (Example 1) having a melting start temperature of about 134° C. and a crystal (Reference Example 6) having a melting start temperature of about 130° C. before stability test and after stability tests (40° C. 2 weeks, 50° C. 2 weeks and 60° C. 2 weeks) is shown.

[1] = initial (before 40° C. one month stability test)

SMILES: Cc1c(OCC(F)(F)F)ccnc1C[S@@+]([O-])c1nc2ccccc2[nH]1 [Example 1, (R)-2-[[[3-methyl-4-(2,2,2-trifluoroethoxy)-2-pyridinyl]methyl]sulfinyl]-1H-benzimidazole]
- appearance after stability tests (FIG. 1): did not show changes in the appearance
- 60° C. one month residual ratio: 99.7%

SMILES: Cc1c(OCC(F)(F)F)ccnc1C[S@@+]([O-])c1nc2ccccc2[nH]1 [Example 2, (R)-2-[[[3-methyl-4-(2,2,2-trifluoroethoxy)-2-pyridinyl]methyl]sulfinyl]-1H-benzimidazole]
- 60° C. one month residual ratio: 100%

SMILES: Cc1c(OCC(F)(F)F)ccnc1C[S@@+]([O-])c1nc2ccccc2[nH]1 [Example 6, (R)-2-[[[3-methyl-4-(2,2,2-trifluoroethoxy)-2-pyridinyl]methyl]sulfinyl]-1H-benzimidazole]
- 60° C. one month residual ratio: 99.2%

SMILES: Cc1c(OCC(F)(F)F)ccnc1C[S@@+]([O-])c1nc2ccccc2[nH]1 [Example 11, (R)-2-[[[3-methyl-4-(2,2,2-trifluoroethoxy)-2-pyridinyl]methyl]sulfinyl]-1H-benzimidazole]
- analogous material content (40° C. one month): 0.2%
- appearance (40° C. one month): almost white
- content (40° C. one month): 99.7%
- analogous material content [1]: 0.2%
- appearance [1]: almost white
- content [1]: 99.5%

SMILES: Cc1c(OCC(F)(F)F)ccnc1C[S@@+]([O-])c1nc2ccccc2[nH]1 [Reference Example 3, (R)-2-[[[3-methyl-4-(2,2,2-trifluoroethoxy)-2-pyridinyl]methyl]sulfinyl]-1H-benzimidazole, reference compound]
- 60° C. one month residual ratio: 89.8%

Second part, the molecule after the results:

- appearance after stability tests (FIG. 1): showed appreciably degraded appearance
- 60° C. one month residual ratio: 93.8%
SMILES: Cc1c(OCC(F)(F)F)ccnc1C[S@@+]([O-])c1nc2ccccc2[nH]1 [Reference Example 6, (R)-2-[[[3-methyl-4-(2,2,2-trifluoroethoxy)-2-pyridinyl]methyl]sulfinyl]-1H-benzimidazole, reference compound]

- analogous material content (40° C. one month): 4.6%
- appearance (40° C. one month): brown
- content (40° C. one month): 93.8%
- analogous material content [1]: 0.1%
- appearance [1]: almost white
- content [1]: 99.6%
SMILES: Cc1c(OCC(F)(F)F)ccnc1C[S@@+]([O-])c1nc2ccccc2[nH]1 [Reference Example 7, (R)-2-[[[3-methyl-4-(2,2,2-trifluoroethoxy)-2-pyridinyl]methyl]sulfinyl]-1H-benzimidazole, reference compound]
